Measurements taken from patent US8436011B2, “Pyridinopyridinone derivatives, preparation thereof and therapeutic use thereof” (Sanofi, priority 2008, dated 2013).

Molecular target: T1, FLT3 receptor (MV4-11 cell line bearing an FLT3ITD mutant) (Homo sapiens, UniProt P36888, INS600HVDFREYEYD)
T1 construct: MV4-11 cell line, which line is established from a leukaemia of constitutively active AML type bearing an FLT3ITD mutant; endogenous in cells; host or cells: MV4-11
T1 sequence (P36888 with tags, fused parts or gaps INS600HVDFREYEYD): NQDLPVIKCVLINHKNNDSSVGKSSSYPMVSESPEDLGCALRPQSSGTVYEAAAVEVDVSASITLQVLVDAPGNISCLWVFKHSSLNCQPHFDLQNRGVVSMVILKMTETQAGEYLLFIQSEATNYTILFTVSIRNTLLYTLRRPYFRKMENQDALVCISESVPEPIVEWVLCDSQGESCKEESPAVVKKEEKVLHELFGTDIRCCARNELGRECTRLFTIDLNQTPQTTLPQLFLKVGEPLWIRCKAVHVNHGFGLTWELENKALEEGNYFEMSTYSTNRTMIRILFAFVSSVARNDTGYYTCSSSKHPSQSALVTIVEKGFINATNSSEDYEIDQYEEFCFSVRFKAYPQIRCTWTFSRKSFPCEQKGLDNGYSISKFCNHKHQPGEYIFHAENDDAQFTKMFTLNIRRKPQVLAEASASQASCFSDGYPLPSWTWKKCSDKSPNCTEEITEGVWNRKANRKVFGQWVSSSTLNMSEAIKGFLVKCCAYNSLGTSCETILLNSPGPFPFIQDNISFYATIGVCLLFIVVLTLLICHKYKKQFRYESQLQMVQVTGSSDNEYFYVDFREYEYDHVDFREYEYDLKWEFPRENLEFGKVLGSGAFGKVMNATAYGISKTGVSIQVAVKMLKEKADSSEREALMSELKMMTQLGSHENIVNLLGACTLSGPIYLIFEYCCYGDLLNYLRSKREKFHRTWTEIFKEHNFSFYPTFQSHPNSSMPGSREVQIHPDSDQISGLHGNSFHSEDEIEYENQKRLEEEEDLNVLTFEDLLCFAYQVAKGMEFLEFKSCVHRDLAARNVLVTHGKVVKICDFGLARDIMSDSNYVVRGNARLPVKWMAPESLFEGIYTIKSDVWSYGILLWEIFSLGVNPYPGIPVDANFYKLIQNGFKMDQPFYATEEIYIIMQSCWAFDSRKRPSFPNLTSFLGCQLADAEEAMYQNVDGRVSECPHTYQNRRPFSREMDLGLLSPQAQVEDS
Experiment: Inhibition of FLT3 receptor tyrosine kinase activity: proliferation of MV4-11 cells (CellTiter-Glo, 72 h)
Format: cell-based
Details: 72 hours incubation, read-out: IC50 (concentration that inhibits 50% of the proliferation of the MV4-11 cells)
Experimental: Measurement of Inhibition of the Tyrosine Kinase Activity of the FLT3 Receptor
The inhibitory effect of the compounds according to the invention towards the tyrosine kinase activity of the FLT3 receptor was evaluated on an MV4-11 cell line, which line is established from a leukaemia of constitutively active AML type bearing an FLT3ITD mutant. The inhibitory activity is correlated to the inhibition of cell growth, according to the protocols described by Spiekermann, K. et al., Blood, 2003, 101, (4) 1494-1504 and O'Farrell, A.-M. et al., Blood, 2003, 101, (9) 3597-3605.
MV4-11 cells are washed with PBS buffer and inoculated in 96-well plates, at a density of 1×10^5 cells/ml (100 μL per well), in RPMI 1640 containing 10% FCS, in the presence or absence of the test compounds. After incubation for 72 hours, the viable cells are quantified by measuring the cellular ATP by means of the CellTiter-Glo® kit (Promega, Cat G7571). The cells are treated according to the instructions given by the kit manufacturer, and the luminescence is measured using a Luminoskan (Ascent, Labsystem) with the following parameters: measurement: single; integration time: 1000 ms, lag time: 5 s.
The inhibitory activity with respect to the FLT3 receptor is given by the concentration that inhibits 50% of the proliferation of the MV4-11 cells.

IC50 [nM]	Compound
56	CCn1c(N)c(C(=O)NC)c(=O)c2ccc(-c3ccc(CC(=O)NCC4COCCN4C4CC4)cc3)nc21 (centres unmarked) [compound 33, 2-amino-7-[4-(2-{[(4-cyclopropylmorpholin-3-yl)methyl]amino}-2-oxoethyl)phenyl]-1-ethyl-N-methyl-4-oxo-1,4-dihydro-1,8-naphthyridine-3-carboxamide]
190	CCN1CC(F)(F)C[C@H]1CNC(=O)Cc1ccc(-c2ccc3c(=O)c(C(=O)NC)c(N)n(CC)c3n2)cc1 [compound 24, 2-amino-1-ethyl-7-{4-[2-({[(2S)-1-ethyl-4,4-difluoropyrrolidin-2-yl]methyl}-amino)-2-oxoethyl]phenyl}-N-methyl-4-oxo-1,4-dihydro-1,8-naphthyridine-3-carboxamide]
